Test results as given in publication PMC9140920 (International Journal of Molecular Sciences, 2022).
“Also recorded” adds a separate entry of the source. Like-named read-outs stand apart in the source and are kept apart here.

Legend:
TM4 mouse Sertoli cells = experiment: Cell growth and viability (MTT), dose-response of the drugs alone; type: cell-based; settings: for IC20: read-out: IC20 ± SE; for IC80: read-out: IC80 ± SE
Experimental: Cells were maintained in standard conditions for 24 h before treatments. […] All azoles were dissolved in DMSO. In an effort to avoid a possible experimental artifact with vehicles, experiments were performed including control groups in which the effect of the drug vehicle alone was tested (vehicle control, vCTR). […] For experiments with N-acetylcysteine (NAC), 24 h after seeding cells were pre-treated for 1 h with the ROS inhibitor (1 mM) and then maintained in co-treatment with azoles for 48 h.
TM4 cells were seeded at a density of 1 × 10^4/cm^2, and cultures incubated at standard conditions in the presence or the absence of azoles to reach final concentrations ranging from 0.078 µM up to 320 µM in culture medium. Cell growth and viability were assessed at 24 and 48 h by Trypan-blue exclusion assay and MTT (3-(4,5-dimethylthiazol-2-yl)-2,5-diphenyl-2H-tetrazolium-bromide) colorimetric method (Sigma-Aldrich, St. Louis, MO, USA), quantifying the metabolic efficiency of living cells.
The Interaction Index (II) was calculated, as previously described, by modifying the Chou and Talalay equation [78]. Specifically, Chou and Talalay’s median-effect method estimates the IC50 and the sigmodicity coefficient m values using linear regression of the linearised dose-response curve.
For a two-drug assay, II is the summation of the ratios of the doses (Dn) of the drugs in combination, and the concentrations of the two drugs alone (IDx,n), to obtain a fraction x of cells affected by drug combinations (Fa). IDx,n is estimated by the following equation:(1) IDx,n=IC50(Fa/1−Fa)^1/mn

TM4 cells = experiment: Annexin V-FITC / propidium iodide assay of apoptosis and necrosis; type: cell-based, mouse; settings: for apoptosis induction / cell death: 48 h, annexin V/PI, vs vCTR
Experimental: Cells were maintained in standard conditions for 24 h before treatments. […] All azoles were dissolved in DMSO. In an effort to avoid a possible experimental artifact with vehicles, experiments were performed including control groups in which the effect of the drug vehicle alone was tested (vehicle control, vCTR). In these experimental conditions, we excluded any negative effects of DMSO that is biocompatible with no biological effect per se. For experiments with N-acetylcysteine (NAC), 24 h after seeding cells were pre-treated for 1 h with the ROS inhibitor (1 mM) and then maintained in co-treatment with azoles for 48 h.
Treated and control cells (vCTR) (1 × 10^6) were collected; after washing in ice-cold PBS, samples were resuspended in 1 mL of binding buffer (10 mM HEPES, 140 mM NaCl, and 2.5 mM CaCl2, at pH 7.4) containing 10 µg/mL Annexin V-FITC and 1 µg/mL PI. After staining (1 h incubation at room temperature), cells were then washed and subsequently analysed using an FACS Calibur instrument (BD Instruments Inc., San José, CA, USA). Cells treated with 25 µM Etoposide (Eto) for 24 h were used as a positive control for apoptosis induction. Data from 10,000 events per sample were collected and analysed using an FACS Calibur instrument (BD Instruments Inc., San José, CA, USA ) equipped with cell cycle analysis software (Modfit LT for Mac V3.0) in order to calculate the percentages of apoptotic and necrotic cells.

C-PARP1 in TM4 cells = experiment: Western blot of cleaved PARP1 (C-PARP1); type: cell-based, mouse; settings: 48 h exposure, ratio of cleaved PARP1 to total PARP1, vs vCTR
Experimental: The protein extracts were run on a 10% SDS-PAGE and transferred onto PVDF filters and maintained at room temperature (RT) for 2 h in 5% non-fat dry milk diluted in TBST (containing 0.1% Tween-20). After washing, membranes were incubated O/N at 4 °C with the primary antibody anti-PARP1 (Cell Signaling, Danvers, MA, USA) diluted to 1:1000 in 1% non-fat dry milk in TBST. After washing, PVDF filters were incubated for 1 h at RT with the anti-rabbit (1:5000) HRP-conjugated secondary antibody (Immunological Sciences, by Società Italiana Chimici, Rome, Italy). ECL West Pico Plus chemiluminescent substrate was used to detect signals using a ChemiDoc XRSplus imaging system (Bio-Rad Laboratories, Hercules, CA, USA). The optical densities of blot bands were quantified using ImageJ software (US National Institutes of Health, Bethesda, MD, USA); the graph values represent the ratios of cleaved PARP1 to total PARP1. ß-actin was used as loading control.

[1] = system: ROS production in TM4 cells; experiment: Intracellular ROS detection (DCFH-DA fluorescence); type: cell-based, mouse; settings: 3 h of incubation, vs vCTR
Experimental: The intracellular ROS production was detected by using 2′,7′-dichlorofluorescein diacetate (DCFH-DA) (Molecular Probes, Eugene, OR, USA), as previously reported. In brief, after 30 min and 3 h of treatments, samples were incubated with 1 µM DCFH-DA at 37 °C for 30 min. Subsequently, cells were collected and twice washed in ice-cold PBS; samples were then analysed using flow cytometry to detect the presence of intracellular ROS at the wavelengths of 502 and 524 nm, for the excitation and the emission, respectively; the fluorescence intensity was detected with a Perkin Elmer LS-50B spectrofluorometer. Cells treated with 500 µM tert-butyl hydroperoxide (t-BHP) for 1.5 h were used as a positive control for ROS generation.

ΔΨm in TM4 cells = experiment: Mitochondrial membrane potential (ΔΨm) by JC-1 flow cytometry; type: cell-based, mouse; settings: 3 h of incubation, JC-1, vs vCTR
Experimental: Variations of the ΔΨm in samples exposed to azoles for 3 h were assessed using the lipophilic cation dye JC-1, as previously reported. Cells (1 × 10^6 per sample) were stained for 30 min at 37 °C in a humidified atmosphere, with 3 µM JC-1 (Molecular Probes, Eugene, OR, USA) and collected; after washing in PBS, cells were analysed using flow cytometry. To assure a positive control for the abatement of the ΔΨm, the cells were cultured in the presence of […] rotenone (Sigma-Aldrich, St. Louis, MO, USA) for 1 h at standard conditions, and then incubated with the potentiometric dye as described above. Experiments were performed in triplicate and analysed by an FACS Calibur instrument (BD Instruments Inc., San José, CA, USA). The fluorescent signals from JC-1 monomers or aggregates were detected through the FL-1 (525 ± 5 nm) and FL-2 bandpass filters (575 ± 5 nm), respectively; the forward and side scatter channels gated a minimum of 1 × 10^4 cells on the major population of normal-sized cells. ΔΨm data assessment was performed by the Cell Quest software (BD Instruments Inc., San José, CA, USA).

[2] = cited from earlier work
[3] = cited from earlier work; remark: listed apart in the source
[4] = system: antioxidant enzymes in TM4 cells; experiment: Antioxidant enzymatic activity assays (SOD, CAT, GPx, GR, GST); type: cell-based, mouse
Experimental: The antioxidant enzymatic activities were performed spectrophotometrically, as previously described. Briefly, after 3 h of incubation with azoles, cells were washed in ice-cold PBS, resuspended in buffer containing 50 mM Tris–HCl (pH 7.4), 1% (v/v) Triton X-100, 1 mM EDTA, and then disrupted by three freeze-thawing cycles. After centrifugation (17,000 g, 10 min, 4 °C), the supernatants were collected for protein quantification and subsequently analysed.
The glutathione reductase (GR) activity was evaluated spectrophotometrically by measuring NADPH oxidation (340 nm at 25 °C). The reaction mix contained 50 mM potassium phosphate buffer (pH 7.0), 1 mM GSSG, 0.2 mM NADPH, 1 mM EDTA, and the adequate protein amount.
Total glutathione peroxidase (GPx) activity (se-dependent and se-independent) of each cell extract was assayed spectrophotometrically by following the NADPH oxidation (340 nm). The assay mixture contained 50 mM potassium phosphate buffer (pH 7.0), 1 mM GSH, 0.01 U/mL GSH reductase, 1 mM EDTA, 0.2 mM NADPH, 70 µM t-BHP, and the adequate amount of the protein extract. The glutathione transferase (GST) activity was evaluated by determining the GSH conjugation rate to 1-chloro-2,4- dinitrobenzene at 340 nm. The reaction mixture was prepared with 0.1 M potassium phosphate buffer (pH 6.5), 2 mM GSH, 1 mM 1-chloro-2,4-dinitrobenzene, and a determined amount of the supernatants.
The catalase (CAT) activity was evaluated, by monitoring at 240 nm its 10-millimolar decomposition. One unit was defined as 1 µmol of H2O2 reduced/min at 25 °C.
The superoxide dismutase (SOD) activity was determined using a colourimetric activity assay (ThermoFisher Scientific—Life Technologies Corp, Carlsband, CA, USA). The assay was conducted according to manufacturer’s instructions; briefly, it measures all types of SOD activity (including Cu/Zn, Mn, and FeSOD). Samples were resuspended in specific coloured diluent and added to a 96-well microplate. […] SOD-specific activity was expressed as U/mg protein, while the specific activity of all the other enzymes analysed was expressed as nmol/min/mg protein.

GSH in TM4 cells = experiment: GSH and GSSG intracellular content (colourimetric assay); type: cell-based, mouse; settings: 3 h of incubation, vs vCTR
Experimental: GSH and GSSG intracellular contents were detected by using a colourimetric assay (ThermoFisher Scientific—Life Technologies Corp, Carlsband, CA, USA). The analyses were performed according to the manufacturer’s instructions after treatments with azoles at 3 h of incubation; in brief, cell lysates were prepared in ice-cold 5% 5-sulfo-salicylic acid dehydrate (Sigma-Aldrich, St. Louis, MO, USA), and subsequently resuspended in the supplied diluent before adding them into a 96-well microplate. After promptly adding substrate, the reaction with the free thiol group of GSH initiates, producing a highly coloured product. The relative absorbance was detected at 405 nm. Assays were performed at least in triplicate for the GSH and the GSSG content detection. To determine oxidised glutathione content, 2-vinylpyridine (2-VP) (Sigma-Aldrich, St. Louis, MO, USA) was added to block free GSH or other thiols contained in each sample; the specific concentration of the GSSG was determined by performing a 2-VP-treated samples standard curve.

[5] = design: method as in PMID 42148393; settings: cattle; cited from earlier work
[6] = Mus musculus, TM4 cells, 48 h of exposure, drug alone, 20% fraction of cells affected (Fa), non-linear fitting
[7] = Mus musculus, TM4 cells, 48 h of exposure, drug alone, 80% fraction of cells affected (Fa), non-linear fitting

## OC(Cn1cncn1)(Cn1cncn1)c1ccc(F)cc1F [FCZ, fluconazole]
TM4 mouse Sertoli cells; TM4 cells, 48 h of exposure, drug alone, 20% fraction of cells affected (Fa), non-linear fitting
  IC20 ± SE: Not detectable
TM4 mouse Sertoli cells; TM4 cells, 48 h of exposure, drug alone, 50% fraction of cells affected (Fa), non-linear fitting
  IC50 ± SE: Not detectable
TM4 mouse Sertoli cells; TM4 cells, 48 h of exposure, drug alone, 80% fraction of cells affected (Fa), non-linear fitting
  IC80 ± SE: Not detectable
TM4 mouse Sertoli cells; TM4 cells, up to 320 µM, individually or in combination
  cytotoxic effects: no cytotoxic effects

## CC(=O)N1CCN(c2ccc(OCC3COC(Cn4ccnc4)(c4ccc(Cl)cc4Cl)O3)cc2)CC1 (stereo not drawn) [KCZ, ketoconazole]
TM4 mouse Sertoli cells; Mus musculus, TM4, 48 h, TM4 cells, 48 h of exposure, drug alone, 50% fraction of cells affected (Fa), non-linear fitting, read-out: IC50 ± SE
  IC50: ~73 µM
TM4 mouse Sertoli cells; [6]
  IC20: 18.3 ± 2.4 µM
TM4 mouse Sertoli cells; [7]
  IC80: 293 ± 38.1 µM
TM4 mouse Sertoli cells; TM4 cells, 48 h of exposure, drug alone, 50% fraction of cells affected (Fa), non-linear fitting, read-out: IC50 ± SE
  IC50: 73.2 ± 9.5 µM
TM4 cells
  apoptosis induction / cell death: a level of apoptosis-induction occurred
C-PARP1 in TM4 cells
  C-PARP1 protein levels: significantly increased
[1]
  increase in ROS production: ~ 1.7 fold
ΔΨm in TM4 cells
  mean intensity of red-orange fluorescence (MFI) of ΔΨm high population: increases in MFI
[2]; human subjects, after treatment with 400 mg/day therapy
  plasma concentration: 24.89 µM
[2]; human, topical KCZ
  systemic absorption after topical administration: little systemic absorption

## Clc1ccc(COC(Cn2ccnc2)c2ccc(Cl)cc2Cl)c(Cl)c1 (stereo not drawn) [MCZ, miconazole]
TM4 mouse Sertoli cells; [6]
  IC20: 8.6 ± 0.6 µM
TM4 mouse Sertoli cells; [7]
  IC80: 138 ± 9.8 µM
TM4 cells
  apoptosis induction / cell death: a level of apoptosis-induction occurred
C-PARP1 in TM4 cells
  C-PARP1 protein levels: significantly increased
[1]
  increase in ROS production: ~ 1.4 fold
[3]
  log Kow (log octanol-water partition coefficient): 6.35

## CC(=O)N[C@@H](CS)C(=O)O [NAC, N-acetylcysteine]
TM4 cells; co-incubation for 48 h with 1 mM NAC
  effect on KCZ- and PCZ/KCZ-induced apoptosis and necrosis: significantly reduced

## CCCN(CCOc1c(Cl)cc(Cl)cc1Cl)C(=O)n1ccnc1 [PCZ, prochloraz]
TM4 mouse Sertoli cells; Mus musculus, TM4, 48 h
  IC20: 18.5 ± 3.9 µM
  IC80: 295 ± 62.3 µM
TM4 mouse Sertoli cells; Mus musculus, TM4, 48 h, read-out: IC50 ± SE, TM4 cells, 48 h of exposure, drug alone, 50% fraction of cells affected (Fa), non-linear fitting
  IC50: ~73 µM
TM4 mouse Sertoli cells; read-out: IC50 ± SE, TM4 cells, 48 h of exposure, drug alone, 50% fraction of cells affected (Fa), non-linear fitting
  IC50: 73.8 ± 15.6 µM
TM4 cells
  apoptosis induction / cell death: no significant differences; also recorded: not able to induce cell death
[1]
  increase in ROS production: ~ 1.7 fold
ΔΨm in TM4 cells
  mean intensity of red-orange fluorescence (MFI) of ΔΨm high population: increases in MFI
[4]; 3 h of exposure, vCTR = 0.46 ± 0.067
  SOD/(GPx + CAT) ratio: 0.0972 ± 0.019
[4]; 3 h of incubation, vs controls
  GST activity: substantially reduced
[4]; 3 h of incubation, vs vCTR
  GR/(GPx + GST) ratio: positive and significant shift
GSH in TM4 cells
  intracellular GSH content: only a slight decrease
[5]
  residues in edible tissues (moderate bioaccumulation): ≥ 0.01 mg/kg
